Measured values reported in patent US20120238604A1, “CYTOTOXIC COMPOUNDS” (Molecular Discovery Systems, priority 2009, published 2012).

Tests used:
[1] = test system: HeLa cells expressing H2B-GFP; assay: Induction of mitotic arrest, phase-contrast microscopy; assay type: cell-based, human; conditions: overnight; 20 μM compound B3 or 100 nM paclitaxel
Method: (A) HeLa cells were exposed overnight to carrier (DMSO), 20 μM compound B3 or 100 nM paclitaxel, and visualized by phase-contrast microscopy.
FIG. 2 (A) The H2B-GFP-expressing HeLa cells (grown under identical culture conditions as described in Example 1) were exposed overnight to carrier (0.1% (v/v) DMSO), 20 μM compound B3 or 100 nM paclitaxel in DMSO. The cells were then visualized using a phase-contrast microscope equipped for digital imaging.

[2] = test system: HeLa cells expressing H2B-GFP; assay: Induction of mitotic arrest, phospho-histone 3 marker of mitosis; assay type: cell-based, human; conditions: 4 hours; 20 μM compound or 100 nM paclitaxel
Method: (B) HeLa cells exposed for 4 hours to carrier (DMSO), 20 μM compound A1 or 100 nM paclitaxel were fixed and stained with anti-phospho-histone 3 marker of mitosis followed by fluorescent secondary antibody. The percentage of cells positive for phospho-histone 3 was determined by digital imaging and analysis of the fluorescence signals (B).
FIG. 2 (B) The H2B-GFP-expressing HeLa cells were treated for 4 hours with carrier (0.1% (v/v) DMSO), 20 μM compound A1 or 100 nM paclitaxel in DMSO. The cells were then briefly rinsed with phosphate-buffered saline (PBS) prior to fixation with 4% para-formaldehyde at ambient temperature. The fixed cells were then stained with mouse monoclonal anti-phospho-histone 3 antibody and Alexafluor 546 nm goat anti-mouse antibody (diluted 400× from commercial stocks into PBS containing 10 mg/ml bovine serum albumin (BSA)). The GFP and 546 nm fluorescence signals were then captured with an IN Cell Analyser 1000 (GE Healthcare) and the percentage of cells stained with the anti-phospho-histone 3 antibody determined using Developer™ software (GE Healthcare).

[3] = test system: HeLa cells expressing H2B-GFP; assay: Induction of apoptosis, Annexin V binding; assay type: cell-based, human; conditions: overnight; 20 μM compound A1 or 100 nM paclitaxel
Method: HeLa cells were exposed overnight to 20 μM compound A1 or 100 nM paclitaxel, stained with a fluorescent Annexin V marker of apoptosis and visualised by epifluorescence microscopy following fixation.
FIG. 3 The H2B-GFP-expressing HeLa cells were treated overnight with 20 μM compound A1 or 100 nM paclitaxel. The cells were then exposed to Annexin-V tagged with Alexafluor 546 nm and visualized using an epifluorescence microscope equipped for digital imaging following fixation with 4% para-formaldehyde.

[4] = test system: Vascular endothelium MS-1 cells; assay: Disruption of the microtubule cytoskeleton of vascular endothelium cells; assay type: cell-based; conditions: 100 nM, 120 minutes
Description: After staining with Hoescht, TRITC-phalloidin, anti-beta tubulin antibody and Alexafluor 488 nm secondary antibody, the cells were imaged at 400× magnification by epifluorescence microscopy.

[5] = test system: HeLa cells expressing H2B-GFP; assay: Inhibition of cell proliferation (GI50) by nuclear counts, IN Cell Analyser; assay type: cell-based, human; conditions: HeLa
Method: Table 3 HeLa cells expressing H2B-GFP were plated in 96-well plates and exposed to concentrations ranging from 100 μM to […] of the indicated compounds C1-C78. The number of cells was then determined every 24 hours by imaging of the plates using an IN Cell Analyser (GE Healthcare), followed by measurement of the number of intact cell nuclei using Developer™ software (GE Healthcare). Drug concentrations that cause 50% inhibition of cell proliferation (GI50) were determined from the nuclear counts using GraphPad Prism software or ED50v10 freeware.

[6] = test system: purified porcine brain tubulin; assay: In vitro microtubule assembly, light scattering at 350 nm; assay type: biochemical; conditions: 3 and 6 μM, 37° C.
Method: In vitro polymerisation of purified porcine brain tubulin at 37° C. in the presence of compound C9 (3 and 6 μM), 15 μM nocodazole, 2 μM vinblastine or an equal volume of carrier DMSO was measured over time as light scattering at 350 nm.

[7] = test system: Vascular endothelium MS-1 cells; assay: Disruption of vascular endothelium cell adhesion (cell capillaries on Matrigel); assay type: cell-based; conditions: 300 nM, 60 minutes
Method: Following the addition of 300 nM compound C9 or an equivalent volume of DMSO carrier for 60 minutes, the extracellular matric plugs were imaged at 40× magnification by phase contrast microscopy.

[8] = test system: HeLa cells expressing H2B-GFP; assay: Induction of mitotic arrest (EC50), mitotic index by phospho-histone 3 staining; assay type: cell-based; conditions: Homo sapiens, concentration for 50% induction of mitotic arrest, overnight, values in nM, read-out: EC50 (mitosis) (HeLa)
Method: Parallel plates were treated overnight with the compounds to visualize the mitotic cells by staining with anti-phospho-histone 3 and Alexafluor 546 nm secondary antibodies after fixation with 4% paraformaldehyde. Following imaging of the nuclear GFP and phospho-histone 3 signals using an IN Cell Analyser (GE Healthcare), determination of the mitotic index by analysis of the images with Developer™ software (GE Healthcare) permitted estimation of the concentration that leads to 50% induction of the mitotic arrest (EC50). It can be seen that inhibition of cell proliferation and mitosis correlate well for the compounds tested.

[9] = test system: HeLa cells expressing H2B-GFP; assay: Perturbation of mitotic spindle organisation and assembly, anti-β-tubulin staining; assay type: cell-based, human; conditions: 20 μM, overnight
Method: HeLa cells stably expressing a green fluorescent marker of nuclear DNA (H2B-GFP) were exposed overnight to carrier (DMSO) or 20 μM compounds A1 and B3. The cells were then fixed with methanol, stained with mouse monoclonal anti-β-tubulin antibody and Alexafluor 546 nm goat anti-mouse antibody, and fluorescent signal visualised by microscopy. The open circle indicates a cell with a perturbed mitotic spindle while the arrow indicates a cell with a mostly disassembled mitotic spindle.
These cells were exposed overnight to carrier (0.1% (v/v) DMSO) or an equivalent volume of DMSO containing compounds A1 and B3 (final concentration in the culture medium was 20 μM). The cells were then briefly rinsed with phosphate-buffered saline (PBS) prior to fixation with 100% methanol at −20° C. The fixed cells were then stained with mouse monoclonal anti-β-tubulin antibody and Alexafluor 546 nm goat anti-mouse antibody (diluted 400× from commercial stocks into PBS containing 10 mg/ml bovine serum albumin (BSA)). The GFP and 546 nm fluorescence signals were then visualised using a microscope equipped for digital confocal epifluorescence imaging. The open circle in FIG. 1 represents a cell with a perturbed mitotic spindle while the arrow points to a cell with a mostly unassembled mitotic spindle.

[10] = test system: HeLa cells expressing H2B-GFP; assay: Dose-dependent inhibition of cell proliferation, cell counts over 0-96 h; assay type: cell-based, human; conditions: 0.2-20 μM
Method: FIG. 4. Dose-dependent inhibition of cell proliferation by compound B3. The proliferation of HeLa cells at decreasing concentrations (from 20 to 0.2 μM) of polokinase inhibitor (PKi), KSP inhibitor (STLC) and compound B3 was determined (relative to paclitaxel at 400 to 10 nM) by counting of the cells over time (0-96 h).
FIG. 4 HeLa cells expressing H2B-GFP were plated in multi-well plates and exposed to 0.2-20 μM of polokinase inhibitor (PKi), KSP inhibitor (STLC) and compound B3, or 10-400 nM of paclitaxel. The number of cells at 0, 24, 48, 72 and 96 h of treatment was determined by imaging of the GFP signal in the plates with an IN Cell Analyser (GE Healthcare) followed by measurement of the number of intact cell nuclei using Developer™ software (GE Healthcare).

GI50 ([5]; Homo sapiens, concentration causing 50% inhibition of cell proliferation, nuclear counts every 24 hours) [nM] | EC50 [8] [nM] | SMILES | Accumulation of cells with mitotic phenotype [1] | Accumulation of cells stained with phospho-histone 3 marker of mitosis [2] | Induction of apoptotic cells (Annexin-V binding) [3] | Disruption of the microtubule cytoskeleton [4] | Anti-proliferative activity (effect of substitution, in words) ([5]; text comment on Table 3) | Inhibition of in vitro microtubule assembly [6] | Disruption of vascular endothelium cell adhesion [7] | Effect on mitotic spindle organisation and assembly [9] | Concentration potently blocking cell proliferation [10] [µM]
– | – | CC(=O)O[C@H]1C(=O)[C@@]2(C)[C@H]([C@H](OC(=O)c3ccccc3)[C@]3(O)C[C@H](OC(=O)[C@H](O)[C@@H](NC(=O)c4ccccc4)c4ccccc4)C(C)=C1C3(C)C)[C@]1(OC(C)=O)CO[C@@H]1C[C@@H]2O [paclitaxel, reference compound] | pronounced accumulation of round and translucent cells representing the mitotic phenotype | accumulation of cells that are stained with the phospho-histone 3 marker of mitosis | induction of apoptotic cells | – | – | – | – | – | –
10 | 10 | COc1ccccc1/C=N/NC(=S)Nc1ccccc1C(F)(F)F [C9] | – | – | – | Disruption of the microtubule cytoskeleton of vascular endothelium cells | greatly increase the anti-proliferative activity | Dose-dependent inhibition of in vitro microtubule assembly | Disruption of vascular endothelium cell adhesion | – | –
– | – | COc1ccccc1/C=N/NC(=S)Nc1cccc(C)c1 [B3, 2-METHOXYBENZALDEHYDE N-(3-METHYLPHENYL)THIOSEMICARBAZONE] | pronounced accumulation of round and translucent cells representing the mitotic phenotype | accumulation of cells that are stained with the phospho-histone 3 marker of mitosis | – | – | – | – | – | profoundly perturbs spindle function by blocking the assembly of spindle microtubule fibres | > 1
